Laboratory results taken from ChEMBL document CHEMBL3407402, “Nintedanib: from discovery to the clinic” (J Med Chem, 2015).
Each block holds one compound with its values, some of them ahead of it.

How the values were obtained:
[1] = Antitumor activity against human H460 cells in xenograft model assessed as tumor growth inhibition ratio; type: functional, NCI-H460
[2] = Cmax in CD1 mouse at 50 mg/kg, po; type: ADME, organism-based; parameters: dose 50 mg/kg, route oral; details: in vivo
[3] = Half life in CD1 mouse at 50 mg/kg, po; type: ADME, organism-based; parameters: dose 50 mg/kg, route oral; details: in vivo
[4] = AUC in CD1 mouse at 50 mg/kg, po; type: ADME, organism-based; parameters: dose 50 mg/kg, route oral; details: plasma
[5] = Mean residence time in CD1 mouse at 50 mg/kg, po; type: ADME, organism-based; parameters: dose 50 mg/kg, route oral; details: in vivo
[6] = Cmax in Wistar rat at 50 mg/kg, po; type: ADME, organism-based; parameters: dose 50 mg/kg, route oral; details: in vivo
[7] = AUC in Wistar rat at 50 mg/kg, po; type: ADME, organism-based; parameters: dose 50 mg/kg, route oral; details: plasma
[8] = Oral bioavailability in Wistar rat at 50 mg/kg; type: ADME, organism-based; details: in vivo
[9] = Cmax in Wistar rat at 2 mg/kg, iv; type: ADME, organism-based; parameters: dose 2 mg/kg, route intravenous; details: in vivo
Rattus norvegicus [10] = experiment: Half life in Wistar rat at 2 mg/kg, iv; type: ADME, organism-based; parameters: dose 2 mg/kg, route intravenous; details: in vivo
[11] = AUC in Wistar rat at 2 mg/kg, iv; type: ADME, organism-based; parameters: dose 2 mg/kg, route intravenous; details: plasma
[12] = Clearance in Wistar rat at 2 mg/kg, iv; type: ADME, organism-based; parameters: dose 2 mg/kg, route intravenous; details: in vivo
Rattus norvegicus [13] = experiment: Mean residence time in Wistar rat at 2 mg/kg, iv; type: ADME, organism-based; parameters: dose 2 mg/kg, route intravenous; details: in vivo
[14] = Cmax in cynomolgus monkey at 40 mg/kg, po; type: ADME, organism-based, Macaca fascicularis; parameters: dose 40 mg/kg, route oral; details: in vivo
[15] = AUC in Cynomolgus monkey at 40 mg/kg, po; type: ADME, organism-based, Macaca fascicularis; parameters: dose 40 mg/kg, route oral; details: plasma
[16] = Oral bioavailability in Cynomolgus monkey at 40 mg/kg; type: ADME, organism-based, Macaca fascicularis; details: in vivo
[17] = Cmax in Cynomolgus monkey at 5 mg/kg, iv; type: ADME, organism-based, Macaca fascicularis; parameters: dose 5 mg/kg, route intravenous; details: in vivo
[18] = Half life in Cynomolgus monkey at 5 mg/kg, iv; type: ADME, organism-based, Macaca fascicularis; parameters: dose 5 mg/kg, route intravenous; details: in vivo
[19] = AUC in Cynomolgus monkey at 5 mg/kg, iv; type: ADME, organism-based, Macaca fascicularis; parameters: dose 5 mg/kg, route intravenous; details: plasma
[20] = Clearance in Cynomolgus monkey at 5 mg/kg, iv; type: ADME, organism-based, Macaca fascicularis; parameters: dose 5 mg/kg, route intravenous; details: in vivo
[21] = Mean residence time in Cynomolgus monkey at 5 mg/kg, iv; type: ADME, organism-based, Macaca fascicularis; parameters: dose 5 mg/kg, route intravenous; details: in vivo
[22] = Volume of distribution at steady state in Cynomolgus monkey at 5 mg/kg, iv; type: ADME, organism-based, Macaca fascicularis; parameters: dose 5 mg/kg, route intravenous; details: in vivo, read-out: Vdss
[23] = Cmax in Rhesus monkey at 40 mg/kg, po; type: ADME, organism-based, Macaca mulatta; parameters: dose 40 mg/kg, route oral; details: in vivo
[24] = AUC in Rhesus monkey at 40 mg/kg, po; type: ADME, organism-based, Macaca mulatta; parameters: dose 40 mg/kg, route oral; details: plasma
[25] = Oral bioavailability in Rhesus monkey at 40 mg/kg; type: ADME, organism-based, Macaca mulatta; details: in vivo
[26] = Cmax in Rhesus monkey at 5 mg/kg, iv; type: ADME, organism-based, Macaca mulatta; parameters: dose 5 mg/kg, route intravenous; details: in vivo
[27] = AUC in Rhesus monkey at 5 mg/kg, iv; type: ADME, organism-based, Macaca mulatta; parameters: dose 5 mg/kg, route intravenous; details: plasma
[28] = Clearance in Rhesus monkey at 5 mg/kg, iv; type: ADME, organism-based, Macaca mulatta; parameters: dose 5 mg/kg, route intravenous; details: in vivo
[29] = Mean residence time in Rhesus monkey at 5 mg/kg, iv; type: ADME, organism-based, Macaca mulatta; parameters: dose 5 mg/kg, route intravenous; details: in vivo
[30] = Volume of distribution at steady state in Rhesus monkey at 5 mg/kg, iv; type: ADME, organism-based, Macaca mulatta; parameters: dose 5 mg/kg, route intravenous; details: in vivo, read-out: Vdss
[31] = Drug excretion in healthy male after 24 to 48 hrs; type: ADME, organism-based; details: human, in vivo, read-out: Drug excretion
[32] = Drug excretion in healthy male urine/feces after 96 hrs; type: ADME, tissue-based; details: human, urine and faeces, read-out: Drug excretion
[33] = Drug excretion in healthy male urine after 72 hrs; type: ADME, tissue-based; details: human, read-out: Drug excretion
[34] = Drug excretion in healthy male via biliary system into feces over 120 hrs; type: ADME, tissue-based; details: human, faeces, read-out: Drug excretion
[35] = Inhibition of VEGF-stimulated HSMEC cell proliferation; type: functional; details: Homo sapiens
in vivo = details: rhesus monkey, iv, 5 mg/kg
Description: Half life in Rhesus monkey at 5 mg/kg, iv

clinical = details: male, human, in vivo
Description: Terminal half life in healthy male

SMILES: CC(=O)O[C@@]12CO[C@@H]1C[C@H](O)[C@@]1(C)C(=O)[C@H](O)C3=C(C)[C@@H](OC(=O)[C@H](O)[C@@H](NC(=O)OC(C)(C)C)c4ccccc4)C[C@@](O)([C@@H](OC(=O)c4ccccc4)[C@H]21)C3(C)C.O.O.O [DOCETAXEL]
TGI [1]: 66%

Cmax [2]: 547 ng/mL | half-life [3]: 309 min | AUC [4]: 2720 ng·h/mL | MRT [5]: 5.19 h | Cmax [6]: 105 ng/mL | AUC [7]: 375 ng·h/mL | bioavailability [8]: 11.9% | Cmax [9]: 124 ng/mL | t1/2 (Rattus norvegicus [10]): 3.95 h | AUC [11]: 181 ng·h/mL | clearance [12]: 202 mL/min/kg | MRT (Rattus norvegicus [13]): 3.25 h | Cmax [14]: 175 ng/mL | AUC [15]: 2390 ng·h/mL | bioavailability [16]: 13.2% | Cmax [17]: 1300 ng/mL | half-life [18]: 357 min | AUC [19]: 2260 ng·h/mL | clearance [20]: 37.5 mL/min/kg | MRT [21]: 3.82 h | Vd [22]: 8.64 L/kg | Cmax [23]: 311 ng/mL | AUC [24]: 4440 ng·h/mL | bioavailability [25]: 23.8% | Cmax [26]: 1090 ng/mL | AUC [27]: 2830 ng·h/mL | clearance [28]: 30.2 mL/min/kg | MRT [29]: 5.7 h | Vd [30]: 10.4 L/kg | dose excreted [31]: 56.3% | dose excreted at 96 h [32]: 92.4% | dose excreted at 72 h [33]: 0.7% | dose excreted at 120 h [34]: 93.4% | half-life (in vivo): 425 min | half-life (clinical): 780 min
SMILES: CCS(=O)(=O)O.COC(=O)c1ccc2c(c1)NC(=O)/C2=C(\Nc1ccc(N(C)C(=O)CN2CCN(C)CC2)cc1)c1ccccc1 [NINTEDANIB ESYLATE]
EC50 [35]: < 10 nM | TGI [1]: 75%
